In the supplement of paper PMC8671470:
± gives the standard deviation of the averaged measurements.

System: HL-60
Assay: cell viability (% survival relative to DMSO control); higher = less cytotoxic
Details: 72 h
Procedure, shortened: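 A rescreen of the full library used HL-60 cells in RPMI 1640 with 10% FBS on 384-well plates, run in duplicate at five tenfold concentrations (1–10,000 nM). Each screen included DMSO or 100 nM of one of three metabolic inhibitors and ran 72 h at 37 °C, 5% CO2. CellTiter-Glo viability was scaled between DMSO and 10 μM proteasome-inhibitor wells. Any area under the curve comes from four-parameter log-logistic fits with drc and PharmacoGx.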

[1] = 0.001 µM, co-treatment: AZD3965 100 nM
[2] = 0.001 µM, co-treatment: DMSO vehicle
[3] = 0.001 µM, co-treatment: GSK2194069 100 nM
[4] = 0.001 µM, co-treatment: pictilisib 100 nM
[5] = 0.01 µM, co-treatment: AZD3965 100 nM
[6] = 0.01 µM, co-treatment: DMSO vehicle
[7] = 0.01 µM, co-treatment: GSK2194069 100 nM
[8] = 0.01 µM, co-treatment: pictilisib 100 nM
[9] = 0.1 µM, co-treatment: AZD3965 100 nM
[10] = 0.1 µM, co-treatment: DMSO vehicle
[11] = 0.1 µM, co-treatment: GSK2194069 100 nM
[12] = 0.1 µM, co-treatment: pictilisib 100 nM
[13] = 1 µM, co-treatment: AZD3965 100 nM
[14] = 1 µM, co-treatment: DMSO vehicle
[15] = 1 µM, co-treatment: GSK2194069 100 nM
[16] = 1 µM, co-treatment: pictilisib 100 nM
[17] = 10 µM, co-treatment: AZD3965 100 nM
[18] = 10 µM, co-treatment: DMSO vehicle
[19] = 10 µM, co-treatment: GSK2194069 100 nM
[20] = 10 µM, co-treatment: pictilisib 100 nM

O=C(O)CC[C@H](NC(=O)c1ccc([N+](=O)[O-])cc1)C(=O)O [(S)-2-(4-Nitrobenzamido)pentanedioic acid]
cell viability [1]: 103.2 ± 0.55% | cell viability [2]: 101.4 ± 0.26% | cell viability [3]: 101 ± 4% | cell viability [4]: 90.7 ± 1.9% | cell viability [5]: 106 ± 5.3% | cell viability [6]: 100 ± 2.4% | cell viability [7]: 110 ± 1.1% | cell viability [8]: 102 ± 1.9% | cell viability [9]: 102 ± 1.6% | cell viability [10]: 99 ± 1.6% | cell viability [11]: 103 ± 4.5% | cell viability [12]: 88.78 ± 0.71% | cell viability [13]: 102 ± 2.1% | cell viability [14]: 102 ± 2.3% | cell viability [15]: 102 ± 3.7% | cell viability [16]: 102 ± 10% | cell viability [17]: 103 ± 7.4% | cell viability [18]: 101 ± 1.4% | cell viability [19]: 99.2 ± 2.3% | cell viability [20]: 92.3 ± 24%

Clc1ccc2c(c1Cl)CNCC2
cell viability [1]: 97.69 ± 0.2% | cell viability [2]: 100 ± 2.3% | cell viability [3]: 93.2 ± 0.5% | cell viability [4]: 97.1 ± 7.5% | cell viability [5]: 94 ± 7.1% | cell viability [6]: 103.4 ± 0.11% | cell viability [7]: 102.4 ± 0.12% | cell viability [8]: 108 ± 11% | cell viability [9]: 103 ± 2.1% | cell viability [10]: 103 ± 3.9% | cell viability [11]: 107 ± 9.4% | cell viability [12]: 103 ± 8.7% | cell viability [13]: 105 ± 4.7% | cell viability [14]: 99.5 ± 2.9% | cell viability [15]: 106.8 ± 0.64% | cell viability [16]: 95.3 ± 7.3% | cell viability [17]: 102 ± 1.6% | cell viability [18]: 107 ± 6.2% | cell viability [19]: 99.73 ± 0.7% | cell viability [20]: 103.3 ± 0.41%

O=c1c2ccccc2[se]n1-c1ccccc1 [Ebselen]
cell viability [1]: 104 ± 4.5% | cell viability [2]: 98.4 ± 6.1% | cell viability [3]: 96.3 ± 1.7% | cell viability [4]: 96.51 ± 0.22% | cell viability [5]: 101 ± 1.1% | cell viability [6]: 98.6 ± 6.1% | cell viability [7]: 102 ± 2.2% | cell viability [8]: 92.1 ± 3.8% | cell viability [9]: 102 ± 11% | cell viability [10]: 103 ± 4.5% | cell viability [11]: 103 ± 11% | cell viability [12]: 97.4 ± 12% | cell viability [13]: 104 ± 5.3% | cell viability [14]: 99 ± 4.8% | cell viability [15]: 108 ± 10% | cell viability [16]: 103 ± 3.2% | cell viability [17]: 100 ± 1.4% | cell viability [18]: 95.7 ± 5.4% | cell viability [19]: 98.4 ± 1.8% | cell viability [20]: 86.2 ± 7.3%

CCOC(=O)[C@H]1O[C@@H]1C(=O)N[C@@H](CC(C)C)C(=O)NCCC(C)C [Aloxistatin]
cell viability [1]: 100 ± 1.1% | cell viability [2]: 102 ± 6% | cell viability [3]: 102 ± 11% | cell viability [4]: 106 ± 11% | cell viability [5]: 101 ± 4.6% | cell viability [6]: 104 ± 7.9% | cell viability [7]: 106 ± 15% | cell viability [8]: 115 ± 19% | cell viability [9]: 98 ± 5.8% | cell viability [10]: 100 ± 1.2% | cell viability [11]: 95.8 ± 2.5% | cell viability [12]: 100 ± 6.3% | cell viability [13]: 97.6 ± 3.7% | cell viability [14]: 100 ± 1.4% | cell viability [15]: 92.5 ± 11% | cell viability [16]: 106 ± 5.1% | cell viability [17]: 103 ± 6.2% | cell viability [18]: 99.7 ± 2.7% | cell viability [19]: 115 ± 23% | cell viability [20]: 99.7 ± 3.2%

Oc1cc(Cl)ccc1Oc1ccc(Cl)cc1Cl [Triclosan]
cell viability [1]: 100 ± 3.6% | cell viability [2]: 101 ± 2.6% | cell viability [3]: 102 ± 4.7% | cell viability [4]: 93.3 ± 13% | cell viability [5]: 104 ± 5.1% | cell viability [6]: 98.7 ± 7.6% | cell viability [7]: 107 ± 9.5% | cell viability [8]: 120 ± 9.4% | cell viability [9]: 96.5 ± 1.2% | cell viability [10]: 99.7 ± 1.2% | cell viability [11]: 95.3 ± 5.2% | cell viability [12]: 95.7 ± 12% | cell viability [13]: 94.9 ± 7.2% | cell viability [14]: 99.6 ± 1.5% | cell viability [15]: 105 ± 4.4% | cell viability [16]: 111 ± 3.4% | cell viability [17]: 103 ± 3.2% | cell viability [18]: 111 ± 4% | cell viability [19]: 99.7 ± 2.5% | cell viability [20]: 107.6 ± 0.22%

CC(C)Cc1sc(N)nc1-c1ccc(P(=O)(O)O)o1
cell viability [1]: 105 ± 4.8% | cell viability [2]: 101 ± 7.6% | cell viability [3]: 108 ± 9.1% | cell viability [4]: 97.8 ± 1.5% | cell viability [5]: 99.1 ± 8.8% | cell viability [6]: 100.4 ± 0.35% | cell viability [7]: 96.7 ± 7.1% | cell viability [8]: 89.8 ± 15% | cell viability [9]: 99.2 ± 21% | cell viability [10]: 105 ± 7.3% | cell viability [11]: 103 ± 8.6% | cell viability [12]: 109 ± 9.9% | cell viability [13]: 102 ± 3.8% | cell viability [14]: 104 ± 1.7% | cell viability [15]: 105 ± 3% | cell viability [16]: 98.8 ± 7.3% | cell viability [17]: 101 ± 1.6% | cell viability [18]: 99.2 ± 4.2% | cell viability [19]: 100 ± 3.6% | cell viability [20]: 105 ± 9.4%
